Broadly, the Ki is the dissociation constant of the complex between target and ligand, obtained from inhibition or displacement.

This assay concerns the target Sodium- and chloride-dependent glycine transporter 1 (Homo sapiens) (UniProt P48067). Description: Radioligand Binding Assay: 1. [3H]-Glycine uptake into recombinant CHO cells expressing human GlyT1: Human GlyT1c expressing recombinant hGlyT1c_5_CHO cells were plated at 20,000 cells per well in 96 well Cytostar-T scintillation microplates (Amersham Biosciences) and cultured to sub-confluency for 24 h. For glycine uptake assays the culture medium was aspirated and the cells were washed once ….

Sequence of Sodium- and chloride-dependent glycine transporter 1 (Homo sapiens) (P48067 whole entry, looked up): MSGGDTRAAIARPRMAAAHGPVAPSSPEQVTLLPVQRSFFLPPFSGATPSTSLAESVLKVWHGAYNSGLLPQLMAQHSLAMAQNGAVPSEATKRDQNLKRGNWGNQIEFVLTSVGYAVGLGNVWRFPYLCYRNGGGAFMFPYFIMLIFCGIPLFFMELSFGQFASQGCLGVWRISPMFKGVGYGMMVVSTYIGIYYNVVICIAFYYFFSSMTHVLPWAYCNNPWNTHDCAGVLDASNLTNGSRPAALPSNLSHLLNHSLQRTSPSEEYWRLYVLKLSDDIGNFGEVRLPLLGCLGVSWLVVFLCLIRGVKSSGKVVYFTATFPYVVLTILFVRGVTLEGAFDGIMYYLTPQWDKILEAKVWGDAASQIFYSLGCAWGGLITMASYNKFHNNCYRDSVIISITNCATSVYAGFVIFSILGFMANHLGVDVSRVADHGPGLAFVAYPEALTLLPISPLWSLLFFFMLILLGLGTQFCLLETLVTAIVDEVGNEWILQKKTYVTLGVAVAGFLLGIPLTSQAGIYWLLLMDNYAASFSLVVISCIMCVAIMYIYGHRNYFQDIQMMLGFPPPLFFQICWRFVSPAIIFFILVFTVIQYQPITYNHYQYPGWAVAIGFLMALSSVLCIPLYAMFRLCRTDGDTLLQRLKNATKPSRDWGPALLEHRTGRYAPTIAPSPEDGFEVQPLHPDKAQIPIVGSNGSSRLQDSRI

Turning to `CNC1COc2ccc(N3CC(NS(=O)(=O)CC4CC4)C3)cc2C1Cc1ccccc1` (cis isomer), the Ki is under 10 nM.

(Values after ChEMBL document CHEMBL5725824, “Aminochromane, aminothiochromane and amino-1,2,3,4-tetrahydroquinoline derivatives, pharmaceutical compositions containing them, and their use in therapy” (2017).)
